IC50, fraction unbound and solubility data for 13 compounds are collected here from patent publication US20260217698A1 (BEYANG THERAPEUTICS CO., LTD., priority 2022, published 2026).

≈ marks a conversion by molar mass, not a printed value.

The target in one data set is T1, TIE2 (Homo sapiens, UniProt Q02763).
T1 construct: purchased BPS 40270
The experiment in a line: Kinase inhibition, Mobility Shift Assay/IMAP, TIE2. The data set is classed as biochemical. The method, boiled down: (§1)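 Substrate conversion (phosphorylated vs non-phosphorylated) read by mobility shift on Caliper EZ Reader II and converted to % inhibition relative to no-enzyme and DMSO controls. IC50 fitted from % inhibition versus log compound concentration.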

Another data set deals with T2, VEGFR3 (Homo sapiens, UniProt P35916).
T2 construct: purchased Invitrogen PV4129
The experiment in a line: Kinase inhibition, Mobility Shift Assay/IMAP, VEGFR3. The data set is classed as biochemical. The source says:
(§2) This assay directly monitored the ability of compounds to inhibit kinase phosphorylation by measuring non-phosphorylated and phosphorylated substrates in kinase reactions by using Mobility Shift Assays/IMAP™ analysis.
(§3) Read the conversion ratio data on CaliperEZ Reader II. Convert conversion rates into inhibition ratio data.
(§4) “Min” indicates the readout of the control well without the addition of enzymes; and “Max” indicates the readout of the control well with the addition of DMSO Fit IC50 values with XL Fit excel add-in version […].
(§5) X indicates the log value of compound concentration, and Y indicates the inhibition ratio (% inhibition).

In the next data set the test system is melanin. The data set can be described thus: Binding capacity of compounds to melanin. The data set is classed as in vitro ADME, cuttlefish (Sepia officinalis). To be noted: cuttlefish (Sepia officinalis), melanin suspension (1 mg/mL); 1 mg/mL melanin in PBS pH 7.4, 2 μM compound, 2 h at 37° C.; read-out: Fu % (percentage of free drug). The method in brief: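 Compound (2 μM final) incubated with washed Sepia melanin (1 mg/mL, PBS pH 7.4) 2 h at 37° C with shaking; PBS with 0.1% BSA served as blank. Supernatants quantified by LC-MS/MS; bound fraction Fb derived from melanin versus blank concentration.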

Another data set addresses T3, VEGFR1 (Homo sapiens, UniProt P17948).
T3 construct: purchased Invitrogen PR6731B
The data set can be described thus: Kinase inhibition, Mobility Shift Assay/IMAP, VEGFR1. The data set is classed as biochemical.
Source text: as §2, §3, §4, §5

The next data set concerns the target T4, EGFR (Homo sapiens, UniProt P00533).
T4 construct: purchased Carna 08-115
The experiment in a line: Kinase inhibition, Mobility Shift Assay/IMAP, EGFR. The data set is classed as biochemical. The method in brief:
as §1

The next data set has as its target VEGFR2 (Homo sapiens, UniProt P35968). The experiment in a line: Kinase inhibition, Mobility Shift Assay/IMAP, VEGFR2. The data set is classed as biochemical. Also on record: purchased Carna 08-191. The method, boiled down: as §1
In a further data set the test system is HUVEC cells. The data set can be described thus: Inhibition of VEGF-induced HUVEC cell proliferation, CellTiter Glo. The data set is classed as cell-based. To be noted: Homo sapiens, 20 ng/ml VEGF, 72 hours. The source says:
In this experiment, human umbilical vein endothelial cells (HUVEC, Lonza) were used. HUVEC cells are primary cells isolated from umbilical veins. This cell line is a model system to study the functions of endothelial cells. Endothelial cell proliferation in response to VEGF is crucial to the pathological angiogenesis associated with conditions such as tumor development and ocular neovascular diseases.
In this assay, a luciferase bioluminescence assay (CellTiter GLU™, Promega) is used to determine the inhibitory activity of the compounds against VEGF-induced HUVEC cell proliferation and viability. CellTiter GLO™ is a homogeneous method for quantifying the count of viable cells in culture based on ATP, an indicator of metabolically active cells. In this assay, the compound was incubated with HUVEC cells for 72 hours, and then the inhibitory activity of the resulting compound against VEGF-induced HUVEC cell proliferation was measured on the En Vision plate reader.
With the RPMI-1640 medium (plus 5% FBS, 1% Penicillin-Streptomycin) used for the HUVEC cell proliferation experiment, add a cell suspension to a 96-well plate at 100 μl per well, i.e., 4000 HUVEC cells/well, and incubate them overnight in a 5% CO2 incubator at 37° C. (serum starvation). After 24 hours, add 96 μl of the experimental medium to the cell wells, and then add 2 μl of the compound to the cell wells; and after 1 hour following the addition of the compound, add 2 μl of 2 μg/ml VEGF to the cell wells. Add 0.1% DMSO and 20 ng/ml VEGF to cell wells to serve as high-reading control wells. Take cell-free wells with only medium as low-reading control wells. […] After 72 hours of incubation of the cell plate in the incubator, hold the cell plate to be tested at room temperature and discard 100 μl of medium per well. Add 100 μl of CTG reagent (CellTiter Glo kit) per well, oscillate the cell plate in a fast oscillator for 3 minutes, and keep the cell plate at room temperature in the dark for 30 minutes. Read the chemiluminescence signal value with the Envision instrument.
X indicates the log value of compound concentration, Y indicates the inhibition rate (% inhibition), Top indicates the readout of the high-reading control well.

The nature of data set [1]: Solubility test in buffer, LC-MS. The data set is classed as physicochemical. To be noted: aqueous buffer, thermodynamic from solid, room temperature, shaking 8 h, pH not given (method: pH 2.0, 6.5, 7.4). The method, then: Accurately weigh 3 portions of about 2 mg of the compound, and add appropriate volumes of buffers with the pHs of 2.0, 6.5, and 7.4 respectively to obtain a solution with a concentration of 2 mg/mL. After sonication for 10 min, fix them on a shaker and shaking for 8 h at room temperature. After shaking, sonicate for 10 min and centrifuge for 15 min at 13,000 rpm. Pipette 0.1 mL of supernatant into a new tube, shake and rinse it with 5 mL, and discard the liquid. Transfer 0.5 mL of the supernatant again to a new tube, centrifuge it for 15 min at 13,000 rpm, then collect the supernatant (if necessary, dilute with water) and analyze it by LC-MS. The sample concentrations at 3~5 points are subjected to fitting and reticle for quantification.

T1 sequence (Q02763 23-1124): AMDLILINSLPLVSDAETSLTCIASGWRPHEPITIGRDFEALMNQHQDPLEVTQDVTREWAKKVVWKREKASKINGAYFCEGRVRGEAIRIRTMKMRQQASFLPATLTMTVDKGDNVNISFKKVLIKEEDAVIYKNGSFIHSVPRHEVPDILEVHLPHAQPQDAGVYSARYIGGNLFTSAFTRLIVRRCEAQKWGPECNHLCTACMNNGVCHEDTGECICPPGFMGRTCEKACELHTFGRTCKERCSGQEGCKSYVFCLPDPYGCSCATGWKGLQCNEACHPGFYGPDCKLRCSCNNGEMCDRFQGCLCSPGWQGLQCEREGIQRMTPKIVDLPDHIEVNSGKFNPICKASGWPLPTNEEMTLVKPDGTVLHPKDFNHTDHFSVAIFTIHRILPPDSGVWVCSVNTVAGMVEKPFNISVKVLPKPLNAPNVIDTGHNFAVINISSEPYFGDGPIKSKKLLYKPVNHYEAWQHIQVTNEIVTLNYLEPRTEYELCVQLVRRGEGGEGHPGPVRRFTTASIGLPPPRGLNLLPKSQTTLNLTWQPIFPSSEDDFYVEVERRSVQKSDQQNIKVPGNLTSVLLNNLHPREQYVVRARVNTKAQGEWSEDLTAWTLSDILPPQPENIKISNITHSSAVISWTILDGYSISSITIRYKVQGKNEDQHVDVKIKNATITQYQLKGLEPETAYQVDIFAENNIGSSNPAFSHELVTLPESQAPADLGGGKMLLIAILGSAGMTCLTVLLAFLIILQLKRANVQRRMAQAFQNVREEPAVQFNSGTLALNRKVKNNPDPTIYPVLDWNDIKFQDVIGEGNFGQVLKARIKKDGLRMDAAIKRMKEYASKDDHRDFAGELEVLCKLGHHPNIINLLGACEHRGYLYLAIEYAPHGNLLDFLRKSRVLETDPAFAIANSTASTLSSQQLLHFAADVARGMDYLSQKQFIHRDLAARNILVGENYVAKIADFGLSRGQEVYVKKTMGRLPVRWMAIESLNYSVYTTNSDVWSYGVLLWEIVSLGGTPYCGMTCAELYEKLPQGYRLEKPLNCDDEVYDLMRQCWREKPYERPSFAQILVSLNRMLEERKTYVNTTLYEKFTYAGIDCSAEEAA
Sequence of VEGFR2 (P35968 790-1356 limits assumed): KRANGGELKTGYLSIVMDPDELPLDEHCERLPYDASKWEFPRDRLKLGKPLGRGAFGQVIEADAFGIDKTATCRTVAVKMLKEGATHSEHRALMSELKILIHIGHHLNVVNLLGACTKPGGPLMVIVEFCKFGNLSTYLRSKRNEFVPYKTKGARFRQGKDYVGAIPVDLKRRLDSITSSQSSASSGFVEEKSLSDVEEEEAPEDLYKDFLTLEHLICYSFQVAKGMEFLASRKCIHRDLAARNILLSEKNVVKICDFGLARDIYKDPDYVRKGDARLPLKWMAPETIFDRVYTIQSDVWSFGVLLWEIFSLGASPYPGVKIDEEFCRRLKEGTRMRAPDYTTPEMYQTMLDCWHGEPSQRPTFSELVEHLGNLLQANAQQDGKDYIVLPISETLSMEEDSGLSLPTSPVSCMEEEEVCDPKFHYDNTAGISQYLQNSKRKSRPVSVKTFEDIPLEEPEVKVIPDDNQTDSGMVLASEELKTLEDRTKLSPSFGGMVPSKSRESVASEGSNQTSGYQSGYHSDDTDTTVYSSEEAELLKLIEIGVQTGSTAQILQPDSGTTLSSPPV
T3 sequence (P17948 27-1338): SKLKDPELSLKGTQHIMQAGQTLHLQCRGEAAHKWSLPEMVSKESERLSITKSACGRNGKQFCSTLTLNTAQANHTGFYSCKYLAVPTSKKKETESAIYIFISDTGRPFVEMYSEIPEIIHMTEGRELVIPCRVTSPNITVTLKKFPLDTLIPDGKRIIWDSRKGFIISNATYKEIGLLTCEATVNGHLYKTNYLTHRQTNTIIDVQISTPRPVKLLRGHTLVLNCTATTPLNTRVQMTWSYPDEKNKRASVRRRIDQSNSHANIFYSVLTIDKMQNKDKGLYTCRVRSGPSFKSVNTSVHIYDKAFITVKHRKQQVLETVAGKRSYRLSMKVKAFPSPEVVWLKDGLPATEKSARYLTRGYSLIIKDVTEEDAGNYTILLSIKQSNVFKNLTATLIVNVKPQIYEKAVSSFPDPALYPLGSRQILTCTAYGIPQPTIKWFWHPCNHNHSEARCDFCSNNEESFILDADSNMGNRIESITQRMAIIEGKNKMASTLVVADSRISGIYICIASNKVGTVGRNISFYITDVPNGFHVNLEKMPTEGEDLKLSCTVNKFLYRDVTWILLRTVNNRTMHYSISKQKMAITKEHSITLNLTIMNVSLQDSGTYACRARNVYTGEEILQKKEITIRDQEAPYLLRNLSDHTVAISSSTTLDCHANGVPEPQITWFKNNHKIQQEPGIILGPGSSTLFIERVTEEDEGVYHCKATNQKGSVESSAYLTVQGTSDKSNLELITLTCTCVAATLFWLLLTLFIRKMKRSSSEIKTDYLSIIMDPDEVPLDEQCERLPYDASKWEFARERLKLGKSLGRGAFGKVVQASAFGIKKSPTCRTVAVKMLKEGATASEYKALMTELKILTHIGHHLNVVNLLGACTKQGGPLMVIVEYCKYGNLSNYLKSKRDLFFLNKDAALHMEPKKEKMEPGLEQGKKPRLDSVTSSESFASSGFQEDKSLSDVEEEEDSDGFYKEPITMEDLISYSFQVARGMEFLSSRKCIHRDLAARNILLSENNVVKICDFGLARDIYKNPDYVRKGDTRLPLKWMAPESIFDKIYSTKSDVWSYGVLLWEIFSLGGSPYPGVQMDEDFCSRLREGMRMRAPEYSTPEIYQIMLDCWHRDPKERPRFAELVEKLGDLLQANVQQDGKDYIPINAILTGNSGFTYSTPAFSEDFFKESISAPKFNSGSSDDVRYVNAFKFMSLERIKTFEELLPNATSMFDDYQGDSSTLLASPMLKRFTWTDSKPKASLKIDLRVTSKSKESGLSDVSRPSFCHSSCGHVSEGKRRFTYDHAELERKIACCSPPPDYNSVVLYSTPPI
T2 sequence (P35916 25-1363): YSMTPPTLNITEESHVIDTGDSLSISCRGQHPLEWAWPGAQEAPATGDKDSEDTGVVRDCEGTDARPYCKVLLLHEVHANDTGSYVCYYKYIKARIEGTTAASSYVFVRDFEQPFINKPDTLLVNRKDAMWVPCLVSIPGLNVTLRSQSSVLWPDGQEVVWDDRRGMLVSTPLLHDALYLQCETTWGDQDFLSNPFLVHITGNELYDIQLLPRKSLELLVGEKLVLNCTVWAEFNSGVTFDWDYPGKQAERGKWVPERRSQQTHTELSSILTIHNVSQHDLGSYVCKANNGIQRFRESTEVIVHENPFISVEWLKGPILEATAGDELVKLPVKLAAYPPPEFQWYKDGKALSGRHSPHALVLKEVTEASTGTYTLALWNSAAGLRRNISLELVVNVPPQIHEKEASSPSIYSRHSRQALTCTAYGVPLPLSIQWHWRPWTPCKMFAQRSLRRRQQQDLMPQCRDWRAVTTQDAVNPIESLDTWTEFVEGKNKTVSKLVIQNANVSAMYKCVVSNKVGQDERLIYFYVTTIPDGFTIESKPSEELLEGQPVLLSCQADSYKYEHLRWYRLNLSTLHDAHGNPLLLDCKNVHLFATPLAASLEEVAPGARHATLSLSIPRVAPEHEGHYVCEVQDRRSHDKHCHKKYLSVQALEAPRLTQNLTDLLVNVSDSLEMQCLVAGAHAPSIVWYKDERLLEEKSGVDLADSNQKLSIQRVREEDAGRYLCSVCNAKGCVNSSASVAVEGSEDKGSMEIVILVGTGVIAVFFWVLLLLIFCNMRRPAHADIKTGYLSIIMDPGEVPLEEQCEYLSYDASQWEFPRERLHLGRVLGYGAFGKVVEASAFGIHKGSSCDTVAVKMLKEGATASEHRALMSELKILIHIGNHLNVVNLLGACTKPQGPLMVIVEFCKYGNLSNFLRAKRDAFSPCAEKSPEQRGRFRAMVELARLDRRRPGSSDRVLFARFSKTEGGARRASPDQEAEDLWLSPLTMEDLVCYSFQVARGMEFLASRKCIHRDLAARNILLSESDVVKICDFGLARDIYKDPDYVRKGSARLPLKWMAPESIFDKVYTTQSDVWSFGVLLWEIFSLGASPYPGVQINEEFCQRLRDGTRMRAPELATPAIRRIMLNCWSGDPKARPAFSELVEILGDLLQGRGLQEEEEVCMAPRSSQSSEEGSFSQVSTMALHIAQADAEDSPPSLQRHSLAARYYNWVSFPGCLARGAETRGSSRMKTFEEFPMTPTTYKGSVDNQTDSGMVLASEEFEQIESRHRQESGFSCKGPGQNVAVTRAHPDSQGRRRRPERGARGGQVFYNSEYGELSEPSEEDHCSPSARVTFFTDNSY
T4 sequence (P00533 669-1210 limits assumed): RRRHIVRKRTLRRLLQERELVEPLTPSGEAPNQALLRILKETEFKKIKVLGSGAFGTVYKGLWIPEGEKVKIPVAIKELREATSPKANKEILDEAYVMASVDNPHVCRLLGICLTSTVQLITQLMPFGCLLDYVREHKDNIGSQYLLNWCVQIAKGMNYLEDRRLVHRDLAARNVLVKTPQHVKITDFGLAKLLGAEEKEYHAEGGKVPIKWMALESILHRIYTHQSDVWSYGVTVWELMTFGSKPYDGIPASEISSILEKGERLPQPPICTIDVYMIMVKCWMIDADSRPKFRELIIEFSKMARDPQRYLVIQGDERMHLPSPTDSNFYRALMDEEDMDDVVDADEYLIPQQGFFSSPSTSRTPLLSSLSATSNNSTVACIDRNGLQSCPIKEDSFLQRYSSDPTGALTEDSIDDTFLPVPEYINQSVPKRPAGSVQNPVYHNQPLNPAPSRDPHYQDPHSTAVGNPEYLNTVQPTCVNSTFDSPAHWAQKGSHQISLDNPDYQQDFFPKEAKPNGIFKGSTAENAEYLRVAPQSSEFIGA

As a reminder, the IC50 is the concentration needed to halve the response being measured. In the case of `CN1CCC(CCNC(=O)Nc2snc(OCc3ccc4c(c3)OCC4)c2C(N)=O)CC1` [Compound T053, 3-((2,3-dihydrobenzofuran-6-yl)methoxy)-5-(3-(2-(1-methylpiperidin-4-yl)ethyl)ureido)isothiazole-4-carboxamide], the IC50 on TIE2 is 258 nM; at VEGFR3 it was 17.4 nM; on VEGFR1, 14.7 nM; at EGFR it was 11400 nM; on VEGFR2 it was 10.4 nM; in the data set with HUVEC cells it was 69.7 nM. Besides, in the data set with melanin, the fraction unbound at 2 h, 2 μM was 0.0225.

By solubility is commonly meant the dissolved amount per volume that the medium holds. Consider `CNC(=O)c1cccc(COc2nsc(NC(=O)NCCC3CCN(C)CC3)c2C(N)=O)c1` [Compound T055, 3-((3-(methylcarbamoyl)benzyl)oxy)-5-(3-(2-(1-methylpiperidin-4-yl)ethyl)ureido)isothiazole-4-carboxamide], for which the IC50 at TIE2 was found to be 3360 nM; at VEGFR3, 39.3 nM; at VEGFR1 it was 7.7 nM; at EGFR it was 49700 nM; at VEGFR2 it was 15.7 nM. Besides, the solubility at 8 h in data set [1] came out at 144 µg/mL (≈ 303 µM).

Turning to `CN1CCN(CCNC(=O)Nc2snc(OCc3cccc(C(=O)NC4CC4)c3)c2C(N)=O)CC1` [Compound T065, 3-((3-(cyclopropylcarbamoyl)benzyl)oxy)-5-(3-(2-(4-methylpiperazin-1-yl)ethyl)ureido)isothiazole-4-carboxamide], the IC50 on TIE2 was 5430 nM; at VEGFR3 it was 24.1 nM; at VEGFR1, 6.55 nM; at EGFR it was at least 60000 nM; at VEGFR2, 9.95 nM. The compound further showed a solubility at 8 h in data set [1] of 782 µg/mL (≈ 1560 µM).

Consider `CN1CCN(CCCNC(=O)Nc2snc(OCc3cccc(C(=O)NC4CC4)c3)c2C(N)=O)CC1` [Compound T069, 3-((3-(cyclopropylcarbamoyl)benzyl)oxy)-5-(3-(3-(4-methylpiperazin-1-yl)propyl)ureido)isothiazole-4-carboxamide], for which the IC50 is 3510 nM at TIE2; 14.6 nM at VEGFR3; 5.48 nM on VEGFR1; above 60000 nM on EGFR; 2.77 nM at VEGFR2. The amount in solution in data set [1] (solubility at 8 h) came to 633 µg/mL (≈ 1230 µM).

As to `CNC(=O)c1cc(COc2nsc(NC(=O)NCCCCN3CCCC3)c2C(N)=O)ccc1F` [Compound T070, 3-((4-fluoro-3-(methylcarbamoyl)benzyl)oxy)-5-(3-(4-(pyrrolidin-1-yl)butyl)ureido)isothiazole-4-carboxamide], the IC50 was 7800 nM on TIE2; 50.1 nM on VEGFR3; 9.14 nM on VEGFR1; above 60000 nM on EGFR; 12 nM at VEGFR2. The solubility at 8 h in data set [1] worked out at 927 µg/mL (≈ 1880 µM).

As for `CN1CCC(CCNC(=O)Nc2snc(OCc3cc4c(cc3F)CCO4)c2C(N)=O)CC1` [Compound T073], the IC50 on VEGFR3 was determined as 10.7 nM; on VEGFR1, 5.99 nM; on EGFR, 4550 nM; at VEGFR2, 2.73 nM; in the data set on HUVEC cells, 26.9 nM.

For the compound `NC(=O)c1c(OCc2cc3c(cc2F)CCO3)nsc1NC(=O)NCCCCN1CC[C@H](O)C1` [Compound T090, 3-[(5-fluoro-2,3-dihydrobenzofuran-6-yl)methoxy]-5-[4-[(3S)-3-hydroxypyrrolidin-1-yl]butylcarbamoylamino]isothiazole-4-carboxamide], the IC50 worked out at 13 nM on VEGFR3; 7.73 nM at VEGFR1; 13900 nM on EGFR; 3.55 nM at VEGFR2; 46.9 nM in the data set with HUVEC cells. Moreover, the fraction unbound at 2 h, 2 μM in the data set on melanin came out at 0.025.

Consider `NC(=O)c1c(OCc2cc3c(cc2F)CCO3)nsc1NC(=O)NCCC1CCN(CCF)CC1` [Compound T103, 3-[(5-fluoro-2,3-dihydrobenzofuran-6-yl)methoxy]-5-[2-[1-(2-fluoroethyl)-4-piperidyl]ethylcarbamoylamino]isothiazole-4-carboxamide], for which the IC50 worked out at 94.5 nM on TIE2, 5490 nM on EGFR, 4.96 nM at VEGFR2 and 66 nM with HUVEC cells. Moreover, in the data set on melanin, the fraction unbound at 2 h, 2 μM stood at 0.0229.

In the case of `COc1ccc(F)c(COc2nsc(NC(=O)NCCCCN3CC[C@@H](F)C3)c2C(N)=O)c1F` [Compound T111, 3-[(2,6-difluoro-3-methoxy-phenyl)methoxy]-5-[4-[(3R)-3-fluoropyrrolidin-1-yl]butylcarbamoylamino]isothiazole-4-carboxamide], the IC50 on TIE2 is 223 nM; on EGFR, 19800 nM; on VEGFR2, 15.1 nM; in the data set with HUVEC cells it was 32 nM. The fraction unbound at 2 h, 2 μM in the data set with melanin came out at 0.0449.

`COc1ccc(F)c(COc2nsc(NC(=O)NCCC3CCN(CCF)CC3)c2C(N)=O)c1F` [Compound T112, 3-[(2,6-difluoro-3-methoxy-phenyl)methoxy]-5-[2-[1-(2-fluoroethyl)-4-piperidyl]ethylcarbamoylamino]isothiazole-4-carboxamide]: the IC50 at TIE2 was found to be 129 nM; on EGFR, 10200 nM; on VEGFR2, 14.6 nM; with HUVEC cells, 36 nM. The fraction unbound at 2 h, 2 μM in the data set on melanin was determined as 0.0222.

Take `COc1ccc(F)c(COc2nsc(NC(=O)NCCCCN3CC[C@H](F)C3)c2C(N)=O)c1F` [Compound T113, 3-[(2,6-difluoro-3-methoxy-phenyl)methoxy]-5-[4-[(3S)-3-fluoropyrrolidin-1-yl]butylcarbamoylamino]isothiazole-4-carboxamide]: the IC50 at TIE2 was determined as 163 nM; at EGFR, 11800 nM; at VEGFR2, 14.7 nM; in the data set with HUVEC cells, 27 nM. In the data set with melanin, the fraction unbound at 2 h, 2 μM came out at 0.0268.

Consider `NC(=O)c1c(OCc2cc3c(cc2F)CCO3)nsc1NC(=O)NCCCCN1CC[C@H](F)C1` [Compound T115, 3-[(5-fluoro-2,3-dihydrobenzofuran-6-yl)methoxy]-5-[4-[(3S)-3-fluoropyrrolidin-1-yl]butylcarbamoylamino]isothiazole-4-carboxamide], for which the IC50 at TIE2 was 117 nM; on EGFR, 8220 nM; at VEGFR2, 7.2 nM; in the data set on HUVEC cells, 36 nM. In addition, the fraction unbound at 2 h, 2 μM in the data set on melanin turned out to be 0.0148.

In the case of `NC(=O)c1c(OCc2cc3c(cc2F)CCO3)nsc1NC(=O)NCCCN1CC[C@H](F)C1` [Compound T119, 3-[(5-fluoro-2,3-dihydrobenzofuran-6-yl)methoxy]-5-[3-[(3S)-3-fluoropyrrolidin-1-yl]propylcarbamoylamino]isothiazole-4-carboxamide], the IC50 on TIE2 came out at 205 nM; at EGFR, 19900 nM; with HUVEC cells, 67 nM. In addition, in the data set with melanin, the fraction unbound at 2 h, 2 μM amounted to 0.0202.
